± gives the expanded uncertainty stated by the source.
Assay: mn = molality of the nth substance listed, in mol/kg
Conditions: 100 kPa, Liquid, Vibrating tube method

[Cl-].[Na+] [sodium chloride] + O
mass density [kg/m3]
Conditions	m1 = 0.1	m1 = 0.2	m1 = 0.3	m1 = 0.4	m1 = 0.5	m1 = 0.6
293.15 K	1002.42 ± 0.5	1006.57 ± 0.5	1010.63 ± 0.5	1014.73 ± 0.5	1018.78 ± 0.5	1022.6 ± 0.5
298.15 K	1001.21 ± 0.5	1005.31 ± 0.5	1009.33 ± 0.5	1013.38 ± 0.5	–	1021.15 ± 0.5
303.15 K	999.767 ± 0.5	1003.83 ± 0.5	1007.8 ± 0.5	1011.82 ± 0.5	1015.77 ± 0.5	–
308.15 K	998.116 ± 0.5	1002.14 ± 0.5	1006.08 ± 0.5	1010.07 ± 0.5	–	1017.71 ± 0.5
313.15 K	996.272 ± 0.5	1000.27 ± 0.5	1004.18 ± 0.5	1008.14 ± 0.5	1012.04 ± 0.5	1015.73 ± 0.5
